Assay results: patent US11116776B2, “Intravitreal drug delivery systems for the treatment of ocular conditions” (Aerie Pharmaceuticals, Inc., priority 2015, dated 2021)

Experiments:
[1] = ENVRES-PRE-002 ocular pharmacokinetics after intravitreal injection; type: in vivo, New Zealand White rabbits; settings: rabbit; for Cmax: male, New Zealand White, topical or ocular
Procedure: New Zealand White rabbits, 2 males/group/terminal time point, were administered a single bilateral intravitreal injection of either ENV1105 or OZURDEX and were followed for up 1, 2, 3, and/or 5 months. Animals were examined via slit lamp ophthalmoscopy and indirect ophthalmoscopy.
Ocular tissues, including aqueous humor, vitreous humor, and retina, were processed and analyzed for dexamethasone or FA by two of three methods. Dexamethasone present in ocular tissue samples was quantified by ELISA and HPLC. FA present in ocular tissues was quantified by HPLC and mass spectrometry. Prior to analysis, implants or particles were separated from vitreous humor samples via manual removal or centrifugation. Vitreous humor and aqueous humor tissue samples were analyzed as received or diluted with ACN for LC MS/MS or PBS for ELISA.
Animals were followed for up to 3 months, with ocular matrices (retina/choroid, vitreous humor and aqueous humor) collected to determine ocular pharmacokinetics at Months 2 and 3. Ocular exams were conducted on Days 2, 3, 6, 10, weekly through Day 28, and then biweekly through Month 3 to determine tolerability. A summary of the study designed is provided below in Table 10.

[2] = monkey (Chang-Lin 2011); cited from earlier work
[3] = system: VEGF-induced vascular leakage; settings: rabbit model (Edelman 2005); cited from earlier work

Cmax ([1]; 0.27 mg, aqueous humor, Group 4 (ENV-1R-0119-7-5, 6 implants, 270 μg/eye)) [ng/mL] | Cmax ([1]; 0.27 mg, retina/choroid, Group 4 (ENV-1R-0119-7-5, 6 implants, 270 μg/eye)) [ng/g] | Cmax ([1]; 0.27 mg, vitreous humor, Group 4 (ENV-1R-0119-7-5, 6 implants, 270 μg/eye)) [ng/mL] | day on which concentration peaked ([1]; Group 5 (ENV-1R-0119-33-7), retina/choroid and vitreous humor) [days] | Cmax ([1]; 0.0407 mg, retina/choroid, Group 5 (ENV-1R-0119-33-7, 40.7 μg/eye)) [ng/g] | Cmax ([1]; 0.0407 mg, vitreous humor, Group 5 (ENV-1R-0119-33-7, 40.7 μg/eye)) [ng/g] | SMILES | time dexamethasone was detected in the retina and vitreous humor [2] [months] | efficacy in VEGF-induced vascular leakage [3]
5.9 | 28100 | 3080 |  |  |  | C[C@@H]1C[C@H]2[C@@H]3CCC4=CC(=O)C=C[C@]4(C)[C@@]3(F)[C@@H](O)C[C@]2(C)[C@@]1(O)C(=O)CO [Dexamethasone, (8S,9R,10S,11S,13S,14S,16R,17R)-9-Fluoro-11,17-dihydroxy-17-(2-hydroxyacetyl)-10,13,16-trimethyl-6,7,8,9,10,11,12,13,14,15,16,17-dodecahydro-3H-cyclopenta[a]phenanthren-3-one] | 6 | effective
 |  |  | 84 | 3950 | 298 | CC1(C)O[C@@H]2C[C@H]3[C@@H]4C[C@H](F)C5=CC(=O)C=C[C@]5(C)[C@@]4(F)[C@@H](O)C[C@]3(C)[C@]2(C(=O)CO)O1 [fluocinolone acetonide, (1S,2S,4R,8S,9S,11S,12R,13S,19S)-12,19-difluoro-11-hydroxy-8-(2-hydroxyacetyl)-6,6,9,13-tetramethyl-5,7-dioxapentacyclo[10.8.0.0^2,9.0^4.8.0 ^13,18]icosa-14,17-dien-16-one] |  | 
